Read-outs that look alike come from different tables or passages of the source.
Legend:
Assay in all cases: KiNativ assay
Type in all cases: binding
Details in all cases: H929 live cell
ABL, ARG = tested on: ABL, ARG
Description: (§1) Biochemical IC50s of the compounds of the present disclosure against various kinases were measured in a KiNativ assay. Compounds were screened in duplicate at 10 μM in H929 live cell. IC50 was measured via Mass spectroscopy (MS).

BRAF = BRAF (Homo sapiens (Human), UniProt P15056)
Description: as §1

CDK2 = CDK2 (Homo sapiens (Human), UniProt P24941)
Description: as §1

CHK2 = CHK2 (Homo sapiens (Human), UniProt O96017)
Chain of CHK2 (O96017 whole entry): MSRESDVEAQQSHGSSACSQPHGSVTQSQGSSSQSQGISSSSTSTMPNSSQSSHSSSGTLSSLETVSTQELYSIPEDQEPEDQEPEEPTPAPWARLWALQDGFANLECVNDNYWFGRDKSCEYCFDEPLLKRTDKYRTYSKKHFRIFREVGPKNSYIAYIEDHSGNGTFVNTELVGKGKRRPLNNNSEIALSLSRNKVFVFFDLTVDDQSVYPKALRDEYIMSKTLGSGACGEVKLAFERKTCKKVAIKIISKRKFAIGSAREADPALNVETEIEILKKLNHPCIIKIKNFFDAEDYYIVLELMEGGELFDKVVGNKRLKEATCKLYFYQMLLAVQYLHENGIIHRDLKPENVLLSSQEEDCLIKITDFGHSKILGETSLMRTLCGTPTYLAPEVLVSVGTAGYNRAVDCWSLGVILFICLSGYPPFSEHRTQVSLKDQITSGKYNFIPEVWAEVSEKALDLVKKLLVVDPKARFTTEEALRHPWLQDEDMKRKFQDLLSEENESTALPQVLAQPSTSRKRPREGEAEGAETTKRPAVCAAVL
Description: as §1

CaMK1d = CaMK1d (Homo sapiens (Human), UniProt Q8IU85)
Description: as §1

[1] = tested on: CaMK2a, CaMK2b, CaMK2d, CaMK2g
Description: as §1

CaMK2g = CaMK2g (Homo sapiens (Human), UniProt Q13555)
Description: as §1

IKKb = IKKb (Homo sapiens (Human), UniProt O14920)
Description: as §1

ILK = ILK (Homo sapiens (Human), UniProt Q13418)
Chain of ILK (Q13418 whole entry): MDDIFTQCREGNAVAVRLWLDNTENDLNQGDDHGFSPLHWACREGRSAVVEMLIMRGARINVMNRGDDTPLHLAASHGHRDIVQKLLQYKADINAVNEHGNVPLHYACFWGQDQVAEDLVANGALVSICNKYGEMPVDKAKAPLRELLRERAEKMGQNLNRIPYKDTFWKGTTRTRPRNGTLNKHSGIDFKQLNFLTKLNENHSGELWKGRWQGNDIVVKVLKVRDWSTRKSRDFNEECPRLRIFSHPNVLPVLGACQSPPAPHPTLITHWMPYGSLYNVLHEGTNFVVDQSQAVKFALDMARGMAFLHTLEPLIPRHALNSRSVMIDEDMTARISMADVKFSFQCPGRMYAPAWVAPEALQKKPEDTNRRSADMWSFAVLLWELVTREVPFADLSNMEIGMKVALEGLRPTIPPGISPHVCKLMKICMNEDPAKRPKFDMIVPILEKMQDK
Description: as §1

IRAK4 = IRAK4 (Homo sapiens (Human), UniProt Q9NWZ3)
Description: as §1

IRE1 = IRE1 (Homo sapiens (Human), UniProt O75460)
Description: as §1

JAK1 domain1 = JAK1 domain1 (Homo sapiens (Human), UniProt P23458)
Description: as §1

JAK1 domain2 = JAK1 domain2 (Homo sapiens (Human), UniProt P23458)
Description: as §1

KHS1 = KHS1 (Homo sapiens (Human), UniProt Q9Y4K4)
Description: as §1

KSR1, KSR2 = tested on: KSR1, KSR2
Description: as §1

LKB1 = LKB1 (Homo sapiens (Human), UniProt Q15831)
Description: as §1

MAP3K2 = MAP3K2 (Homo sapiens (Human), UniProt Q9Y2U5)
Description: as §1

MAP3K2, MAP3K3 = tested on: MAP3K2, MAP3K3
Description: as §1

MAP3K5 = MAP3K5 (Homo sapiens (Human), UniProt Q99683)
Description: as §1

MAPKAPK2, MAPKAPK3 = tested on: MAPKAPK2, MAPKAPK3
Description: as §1

MARK1, MARK2 = tested on: MARK1, MARK2
Description: as §1

MLK3 = MLK3 (Homo sapiens (Human), UniProt Q16584)
Description: as §1

NEK1 = NEK1 (Homo sapiens (Human), UniProt Q96PY6)
Description: as §1

NEK4 = NEK4 (Homo sapiens (Human), UniProt P51957)
Description: as §1

PI4KB = PI4KB (Homo sapiens (Human), UniProt Q9UBF8)
Chain of PI4KB (Q9UBF8 whole entry): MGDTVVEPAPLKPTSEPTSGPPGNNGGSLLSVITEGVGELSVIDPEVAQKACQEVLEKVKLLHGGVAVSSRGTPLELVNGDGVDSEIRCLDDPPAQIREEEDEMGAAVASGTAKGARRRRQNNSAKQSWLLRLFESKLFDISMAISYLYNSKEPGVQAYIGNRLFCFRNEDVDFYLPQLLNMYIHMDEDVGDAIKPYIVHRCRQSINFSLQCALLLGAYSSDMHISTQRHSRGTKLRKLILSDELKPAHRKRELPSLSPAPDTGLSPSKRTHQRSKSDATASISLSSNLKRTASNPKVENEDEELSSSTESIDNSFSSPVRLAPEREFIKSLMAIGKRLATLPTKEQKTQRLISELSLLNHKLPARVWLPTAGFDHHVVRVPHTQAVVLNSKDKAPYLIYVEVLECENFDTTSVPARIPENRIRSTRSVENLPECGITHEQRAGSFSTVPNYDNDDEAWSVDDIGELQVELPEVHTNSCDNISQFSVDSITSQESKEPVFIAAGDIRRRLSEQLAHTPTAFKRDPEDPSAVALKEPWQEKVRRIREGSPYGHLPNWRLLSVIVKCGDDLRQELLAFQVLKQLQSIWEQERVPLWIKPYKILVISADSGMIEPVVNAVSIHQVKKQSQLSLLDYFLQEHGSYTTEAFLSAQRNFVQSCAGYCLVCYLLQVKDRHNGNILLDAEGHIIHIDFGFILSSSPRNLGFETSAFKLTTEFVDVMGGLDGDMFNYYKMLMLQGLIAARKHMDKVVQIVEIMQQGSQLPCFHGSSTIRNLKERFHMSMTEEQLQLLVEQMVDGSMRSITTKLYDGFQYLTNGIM
Description: as §1

PIP5K3 = PIP5K3 (Homo sapiens (Human), UniProt Q9Y2I7)
Chain of PIP5K3 (Q9Y2I7 whole entry): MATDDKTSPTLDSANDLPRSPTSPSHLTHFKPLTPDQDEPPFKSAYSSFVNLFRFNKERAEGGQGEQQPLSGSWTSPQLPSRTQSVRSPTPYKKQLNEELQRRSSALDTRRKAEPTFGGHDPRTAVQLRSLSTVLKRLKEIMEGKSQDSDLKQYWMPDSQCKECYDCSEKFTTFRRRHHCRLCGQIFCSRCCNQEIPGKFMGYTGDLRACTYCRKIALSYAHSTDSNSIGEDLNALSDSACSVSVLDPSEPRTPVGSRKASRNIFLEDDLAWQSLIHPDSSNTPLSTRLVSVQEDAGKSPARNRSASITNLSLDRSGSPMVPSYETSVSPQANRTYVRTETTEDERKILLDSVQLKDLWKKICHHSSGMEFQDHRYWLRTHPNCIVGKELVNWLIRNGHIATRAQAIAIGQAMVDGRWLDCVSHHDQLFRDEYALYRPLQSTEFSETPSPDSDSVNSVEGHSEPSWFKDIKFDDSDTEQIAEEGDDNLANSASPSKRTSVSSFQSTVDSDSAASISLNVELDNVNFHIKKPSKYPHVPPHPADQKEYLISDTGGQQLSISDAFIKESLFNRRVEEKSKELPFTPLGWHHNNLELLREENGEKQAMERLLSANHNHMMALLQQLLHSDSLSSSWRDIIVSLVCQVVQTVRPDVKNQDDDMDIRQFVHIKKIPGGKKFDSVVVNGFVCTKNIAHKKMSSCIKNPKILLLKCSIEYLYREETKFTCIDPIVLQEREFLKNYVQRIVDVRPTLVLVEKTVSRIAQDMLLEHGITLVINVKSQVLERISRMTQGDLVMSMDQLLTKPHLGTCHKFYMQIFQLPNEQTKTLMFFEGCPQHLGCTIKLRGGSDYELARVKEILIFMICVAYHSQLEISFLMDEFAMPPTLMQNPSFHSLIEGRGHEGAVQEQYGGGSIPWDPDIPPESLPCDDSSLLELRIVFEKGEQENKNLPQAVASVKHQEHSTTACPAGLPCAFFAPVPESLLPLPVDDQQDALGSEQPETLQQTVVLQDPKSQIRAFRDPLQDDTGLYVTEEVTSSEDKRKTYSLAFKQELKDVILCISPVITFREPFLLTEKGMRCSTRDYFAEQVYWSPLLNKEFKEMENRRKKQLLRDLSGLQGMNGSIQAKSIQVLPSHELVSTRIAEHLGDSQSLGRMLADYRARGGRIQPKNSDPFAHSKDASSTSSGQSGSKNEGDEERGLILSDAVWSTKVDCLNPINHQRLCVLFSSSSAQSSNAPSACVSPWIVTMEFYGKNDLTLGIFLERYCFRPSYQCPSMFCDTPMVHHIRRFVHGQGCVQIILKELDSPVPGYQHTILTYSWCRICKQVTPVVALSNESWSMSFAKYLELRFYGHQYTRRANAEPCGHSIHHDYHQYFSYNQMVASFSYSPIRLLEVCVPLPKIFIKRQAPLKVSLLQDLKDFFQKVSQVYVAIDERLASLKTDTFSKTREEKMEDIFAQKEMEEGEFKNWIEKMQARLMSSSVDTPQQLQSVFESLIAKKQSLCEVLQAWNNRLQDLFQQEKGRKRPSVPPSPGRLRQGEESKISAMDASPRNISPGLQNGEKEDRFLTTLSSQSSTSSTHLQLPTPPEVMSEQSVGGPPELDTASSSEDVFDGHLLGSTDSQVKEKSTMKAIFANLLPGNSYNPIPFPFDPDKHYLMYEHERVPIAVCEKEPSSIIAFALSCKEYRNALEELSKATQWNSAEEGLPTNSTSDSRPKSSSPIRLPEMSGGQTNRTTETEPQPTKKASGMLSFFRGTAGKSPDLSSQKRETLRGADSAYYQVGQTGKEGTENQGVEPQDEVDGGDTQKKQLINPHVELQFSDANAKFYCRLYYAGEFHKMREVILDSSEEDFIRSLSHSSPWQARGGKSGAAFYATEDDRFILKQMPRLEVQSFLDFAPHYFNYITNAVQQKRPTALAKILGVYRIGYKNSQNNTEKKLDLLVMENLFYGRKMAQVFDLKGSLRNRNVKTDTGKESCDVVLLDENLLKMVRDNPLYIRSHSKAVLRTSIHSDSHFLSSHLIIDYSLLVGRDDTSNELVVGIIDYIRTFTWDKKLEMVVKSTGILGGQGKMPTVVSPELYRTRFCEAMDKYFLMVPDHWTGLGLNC
Description: as §1

PKD2 = PKD2 (Homo sapiens (Human), UniProt Q9BZL6)
Description: as §1

PKN1 = PKN1 (Homo sapiens (Human), UniProt Q16512)
Chain of PKN1 (Q16512 whole entry): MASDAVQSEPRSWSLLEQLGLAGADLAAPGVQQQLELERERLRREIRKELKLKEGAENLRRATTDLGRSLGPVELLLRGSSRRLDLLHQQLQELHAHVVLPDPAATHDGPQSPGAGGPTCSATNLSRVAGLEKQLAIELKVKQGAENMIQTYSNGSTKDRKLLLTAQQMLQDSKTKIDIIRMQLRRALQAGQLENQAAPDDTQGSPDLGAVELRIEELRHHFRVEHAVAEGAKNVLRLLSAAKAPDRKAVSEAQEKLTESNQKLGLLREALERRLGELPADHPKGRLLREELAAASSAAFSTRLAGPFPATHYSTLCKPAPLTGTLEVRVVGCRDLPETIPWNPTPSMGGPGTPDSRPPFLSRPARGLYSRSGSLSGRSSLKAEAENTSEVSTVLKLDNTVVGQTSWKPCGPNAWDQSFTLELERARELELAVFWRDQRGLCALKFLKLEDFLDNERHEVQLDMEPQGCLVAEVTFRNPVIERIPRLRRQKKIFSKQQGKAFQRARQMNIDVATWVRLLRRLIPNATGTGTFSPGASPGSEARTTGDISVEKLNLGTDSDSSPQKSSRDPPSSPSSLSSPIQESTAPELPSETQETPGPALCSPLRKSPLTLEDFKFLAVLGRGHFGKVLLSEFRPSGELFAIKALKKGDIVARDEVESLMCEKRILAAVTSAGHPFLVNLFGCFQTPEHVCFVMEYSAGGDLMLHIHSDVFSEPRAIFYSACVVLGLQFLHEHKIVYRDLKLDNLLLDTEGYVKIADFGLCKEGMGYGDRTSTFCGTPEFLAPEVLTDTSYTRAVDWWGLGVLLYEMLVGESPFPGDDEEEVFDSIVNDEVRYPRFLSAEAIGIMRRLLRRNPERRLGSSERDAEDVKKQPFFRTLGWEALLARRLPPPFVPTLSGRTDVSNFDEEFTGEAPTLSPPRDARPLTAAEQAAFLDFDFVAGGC
Description: as §1

RSK2 domain2 = RSK2 domain2 (Homo sapiens (Human), UniProt P51812)
Description: as §1

SLK = SLK (Homo sapiens (Human), UniProt Q9H2G2)
Description: as §1

STLK5 = STLK5 (Homo sapiens (Human), UniProt Q7RTN6)
Description: as §1

TAO2 = TAO2 (Homo sapiens (Human), UniProt Q9UL54)
Description: as §1

ULK1 = ULK1 (Homo sapiens (Human), UniProt O75385)
Description: as §1

[2] = tested on: ZC1/HGK, ZC2/TNIK, ZC3/MINK
Description: as §1

## Nc1ncc(-c2cccc([N+](=O)[O-])c2F)cc1-c1ccc2c(c1)CCNC2=O [Compound I-9, 6-(2-amino-5-(2-fluoro-3-nitrophenyl)pyridin-3-yl)-3,4-dihydroisoquinolin-1(2H)-one]
ABL, ARG; 10 μM
  % inhibition (range): 75-90%
ABL, ARG
  inhibition (10 μM): 75.7%
BRAF; read-out: % inhibition (range)
  inhibition at 10 µM: 0%
BRAF; read-out: inhibition (10 μM)
  inhibition at 10 µM: 3.3%
CDK2; read-out: % inhibition (range)
  inhibition at 10 µM: 50 to 75%
CDK2; read-out: inhibition (10 μM)
  inhibition at 10 µM: 68.5%
CHK2; read-out: % inhibition (range)
  inhibition at 10 µM: 75 to 90%
CHK2; read-out: inhibition (10 μM)
  inhibition at 10 µM: 80.9%
CaMK1d; read-out: % inhibition (range)
  inhibition at 10 µM: 0%
CaMK1d; read-out: inhibition (10 μM)
  inhibition at 10 µM: -2.8%
[1]; 10 μM
  % inhibition (range): 0.0%
[1]
  inhibition (10 μM): 3.3%
CaMK2g; read-out: % inhibition (range)
  inhibition at 10 µM: 0%
CaMK2g; read-out: inhibition (10 μM)
  inhibition at 10 µM: -23%
IKKb; read-out: % inhibition (range)
  inhibition at 10 µM: 0%
IKKb; read-out: inhibition (10 μM)
  inhibition at 10 µM: -15%
ILK; read-out: % inhibition (range)
  inhibition at 10 µM: 0%
ILK; read-out: inhibition (10 μM)
  inhibition at 10 µM: -19%
IRAK4; read-out: % inhibition (range)
  inhibition at 10 µM: 0%
IRAK4; read-out: inhibition (10 μM)
  inhibition at 10 µM: -14.1%
IRE1; read-out: % inhibition (range)
  inhibition at 10 µM: 0%
IRE1; read-out: inhibition (10 μM)
  inhibition at 10 µM: -50.1%
JAK1 domain1; read-out: % inhibition (range)
  inhibition at 10 µM: 0%
JAK1 domain1; read-out: inhibition (10 μM)
  inhibition at 10 µM: -44.3%
JAK1 domain2; read-out: % inhibition (range)
  inhibition at 10 µM: 0%
JAK1 domain2; read-out: inhibition (10 μM)
  inhibition at 10 µM: -4.9%
KHS1; read-out: % inhibition (range)
  inhibition at 10 µM: 75 to 90%
KHS1; read-out: inhibition (10 μM)
  inhibition at 10 µM: 79.5%
KSR1, KSR2; 10 μM
  % inhibition (range): 0.0%
KSR1, KSR2
  inhibition (10 μM): −51.3%
LKB1; read-out: % inhibition (range)
  inhibition at 10 µM: 0%
LKB1; read-out: inhibition (10 μM)
  inhibition at 10 µM: 4.5%
MAP3K2; read-out: % inhibition (range)
  inhibition at 10 µM: 0%
MAP3K2; read-out: inhibition (10 μM)
  inhibition at 10 µM: 0.3%
MAP3K2, MAP3K3; 10 μM
  % inhibition (range): 35-50%
MAP3K2, MAP3K3
  inhibition (10 μM): 43.2%
MAP3K5; read-out: % inhibition (range)
  inhibition at 10 µM: 0%
MAP3K5; read-out: inhibition (10 μM)
  inhibition at 10 µM: 30.6%
MAPKAPK2, MAPKAPK3; 10 μM
  % inhibition (range): 0.0%
MAPKAPK2, MAPKAPK3
  inhibition (10 μM): 4.0%
MARK1, MARK2; 10 μM
  % inhibition (range): 35-50%
MARK1, MARK2
  inhibition (10 μM): 40.7%
MLK3; read-out: % inhibition (range)
  inhibition at 10 µM: 50 to 75%
MLK3; read-out: inhibition (10 μM)
  inhibition at 10 µM: 62.9%
NEK1; read-out: % inhibition (range)
  inhibition at 10 µM: 0%
NEK1; read-out: inhibition (10 μM)
  inhibition at 10 µM: -34%
NEK4; read-out: % inhibition (range)
  inhibition at 10 µM: 50 to 75%
NEK4; read-out: inhibition (10 μM)
  inhibition at 10 µM: 67%
PI4KB; read-out: % inhibition (range)
  inhibition at 10 µM: 0%
PI4KB; read-out: inhibition (10 μM)
  inhibition at 10 µM: -13.8%
PIP5K3; read-out: % inhibition (range)
  inhibition at 10 µM: > 90%
PIP5K3; read-out: inhibition (10 μM)
  inhibition at 10 µM: 92%
PKD2; read-out: % inhibition (range)
  inhibition at 10 µM: 35 to 50%
PKD2; read-out: inhibition (10 μM)
  inhibition at 10 µM: 46.2%
PKN1; read-out: % inhibition (range)
  inhibition at 10 µM: 50 to 75%
PKN1; read-out: inhibition (10 μM)
  inhibition at 10 µM: 56.9%
RSK2 domain2; read-out: % inhibition (range)
  inhibition at 10 µM: 0%
RSK2 domain2; read-out: inhibition (10 μM)
  inhibition at 10 µM: -23.2%
SLK; read-out: % inhibition (range)
  inhibition at 10 µM: > 90%
SLK; read-out: inhibition (10 μM)
  inhibition at 10 µM: 95.3%
STLK5; read-out: % inhibition (range)
  inhibition at 10 µM: 0%
STLK5; read-out: inhibition (10 μM)
  inhibition at 10 µM: -14.9%
TAO2; read-out: % inhibition (range)
  inhibition at 10 µM: 35 to 50%
TAO2; read-out: inhibition (10 μM)
  inhibition at 10 µM: 35.3%
ULK1; read-out: % inhibition (range)
  inhibition at 10 µM: 0%
ULK1; read-out: inhibition (10 μM)
  inhibition at 10 µM: -19.6%
[2]; 10 μM
  % inhibition (range): >90%
[2]
  inhibition (10 μM): 96.7%
